# Assays:
# SKW-3 A2.13 TCR cells = test: CD69 upregulation, SKW-3 A2.13 TCR cells; format: cell-based, human; details: for MFI CD69: exp5
# Experimental: (§1) For TCR transduced SKW-3 T cell lines (SKW-3-TCR), response to antigen was determined using flow cytometry to assess the level of upregulation of the T cell activation marker CD69. One hundred thousand BLCL 9031 cells (HLA-DQ8 + : HLA-DQA*03:01:01, HLA-DQB1*03:02) as APCs were incubated at 37 °C, 5% CO2 for 24 h with increasing concentrations of synthesised HIP ([…]; GLBiochem) or native C-peptide ([…]; GLBiochem) or 50 μg DQ8-glia-α1 (control) in 96 well round-bottomed plates. To confirm HLA-DQ8-restriction, 2 μg/ml (SKW-3-ET672-1) or 50 μg/ml (all other SKW-3-TCR cell lines) C-peptide or HIP pulsed BLCL 9031 cells were blocked with a final concentration of 20 μg/ml anti-HLA-DQ monoclonal antibody (clone SPV-L3) for 3 h before stimulation (i.e. before the addition of SKW-3-TCR cell lines). T-cell activation assay were performed by mixing 1 × 10^5 SKW-3-TCR cells, SKW-3 parental cells (control) or SP3.4 (HLA-DQ8-glia-α1 restricted T cell line; control) cells with the peptide-pulsed BLCL 9031 cells or with 5 μl anti-CD3/CD28 dynabeads (Thermo Fisher Scientific) (control) at 37 °C, 5% CO2 for 20 h before antibody staining. The activated induced SKW-3-TCR T cells were washed twice with FACS buffer (Phosphate buffered saline, 10% Fetal Calf Serum (FCS; Merck)) (350 g, 5 min), and stained a mixture of 1:100 diluted V450 mouse anti-human CD3 (clone UCHT1, BD Biosciences) and APC Mouse Anti-Human CD69 (Clone FN50, BD Biosciences) for 1 h on ice in the dark. The samples were washed twice with PBS buffer (350 g, 5 min) to remove excess antibodies. Afterward, the samples were stained for live/dead cells with Zombie NIR (Biolegend) for 30 min at RT in the dark before being washed 6 times with FACS buffer (350 g, 5 min). Before data acquisition, the samples were resuspended in 100 μl of FACS buffer and analysed via flow cytometry (LSR II; BD Biosciences; BD FACSDiva-8.0.1 software). Collected data were analysed using Flowjo v10.6.0 (FlowJo), and then Prism 9 (GraphPad Software). […] Using these settings, the median fluorescence intensity (MFI) corresponding to the relative level of CD69 expressed on the SKW-3-TCR.TCR cell lines was determined using Flowjo v10.6.0 software. The MFI of CD69 were analysed by using Prism 9 (GraphPad Software). Three to six independent experiments were conducted, and all sample were performed in duplicates. Statistical significance was determined using P-values generated by t-test or one-way ANOVA multiple comparison of the MFI of no-peptide-stimulated SKW-3-TCR T cells versa the MFI of peptide-stimulated SKW-3-TCR T cells.
# (§2) Supplementary Figure 1. Antigen reactivity of T cells transduced with TCRs isolated from T1D patient clones and recent onset T1D patient PBMCs. a, b Expression of CD69 on the surface of TCR transduced SKW3 cell lines stimulated overnight with C-peptide-p ulsed BLCL 9031 (top panel), or HIP-p ulsed BLCL 9031 (bottom panel). The SKW3 cell lines transduced with a TCRs isolated from primary T1D T clones and b TCRs isolated from recent onset T1D patient PBMCs (TCR name indicated above the graphs), were cultured with BLCL 9031 (no peptide) or with serial diluted concentration of peptide as indicated (grey), or 50 µg/ml C-peptide/HIP-pulsed BLCL 9031 blocked by anti-H LA-D Q mAb (clone SPV-L3; 20 µg/ml) (black), or 50 µg/ml glia-α1-p ulsed BLCL 9031 (purple; control), or 50 µg/ml C-peptide/HIP peptide only (cyan; control), or T cell lines alone (pink; control). Due to the strong reactivity of the SKW-T CR E672-1 cell line to HIP, only 2 µg of HIP was used in anti-HLA-D Q mAb blocking experiments. All samples were performed in duplicates and the black dots are presented as the mean fluorescence intensity (MFI) of average of duplicated values from three to six (n=3, n=4, n=5 or n=6) independent experiments. […]
# (§3) expression. The fold increase in MFI CD69 expression was calculated by dividing the average MFI CD69 from each sample by the average MFI CD69 from BLCL 9031 (no […]
# (§4) peptide). […]
# SKW-3 A5.5 TCR cells = test: CD69 upregulation, SKW-3 A5.5 TCR cells; format: cell-based, human;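 as to Geometric CD3: measured on live single GFP+ RFP+ cells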
# Experimental: as §1, §2, §3, §4
# [1] = CD69 MFI, flow cytometry, peptide-pulsed BLCL 9031, 20 h
# [2] = exp4, T cell +pep, 50 ug, replicate 1
# [3] = exp4, T cell +pep, 50 ug, replicate 2
# [4] = exp4, block, 50 ug, replicate 1
# [5] = exp4, block, 50 ug, replicate 2
# [6] = exp5, T cell +pep, 50 ug, replicate 1
# [7] = exp5, T cell +pep, 50 ug, replicate 2
# [8] = exp5, block, 50 ug, replicate 1
# [9] = exp5, block, 50 ug, replicate 2
substance,measurement,setting,value
GQVELGGGNAVEVLK [HIP],sensitivity to HIP versus C-peptide,SKW-3 A2.13 TCR cells; [1],five fold more sensitive to HIP than C-peptide
same,sensitivity to HIP over C-peptide,SKW-3 A5.5 TCR cells; [1],~ 3000 fold
Cpeptide,MFI CD69,"SKW-3 A2.13 TCR cells; 0.016 ug, replicate 1",1218
same,MFI CD69,"SKW-3 A2.13 TCR cells; 0.016 ug, replicate 2",1366
same,MFI CD69,"SKW-3 A2.13 TCR cells; 0.08 ug, replicate 1",1349
same,MFI CD69,"SKW-3 A2.13 TCR cells; 0.08 ug, replicate 2",1478
same,MFI CD69,"SKW-3 A2.13 TCR cells; 0.4 ug, replicate 1",1535
same,MFI CD69,"SKW-3 A2.13 TCR cells; 0.4 ug, replicate 2",1892
same,MFI CD69,"SKW-3 A2.13 TCR cells; 2 ug, replicate 1",1776
same,MFI CD69,"SKW-3 A2.13 TCR cells; 2 ug, replicate 2",2613
same,MFI CD69,"SKW-3 A2.13 TCR cells; 10 ug, replicate 1",4442
same,MFI CD69,"SKW-3 A2.13 TCR cells; 10 ug, replicate 2",4296
same,MFI CD69,"SKW-3 A2.13 TCR cells; 50 ug, replicate 1",5931
same,MFI CD69,"SKW-3 A2.13 TCR cells; 50 ug, replicate 2",5830
same,MFI CD69,"SKW-3 A2.13 TCR cells; 100 ug, replicate 1",5697
same,MFI CD69,"SKW-3 A2.13 TCR cells; 100 ug, replicate 2",6898
same,MFI CD69,"SKW-3 A2.13 TCR cells; T cell +pep, 50 ug, replicate 1",712
same,MFI CD69,"SKW-3 A2.13 TCR cells; T cell +pep, 50 ug, replicate 2",880
same,MFI CD69,"SKW-3 A2.13 TCR cells; block, 50 ug, replicate 1",796
same,Geometric CD3,"SKW-3 A5.5 TCR cells; exp4, 0.016 ug, replicate 1",970
same,MFI CD69,"SKW-3 A5.5 TCR cells; exp4, 0.016 ug, replicate 1",898
same,Geometric CD3,"SKW-3 A5.5 TCR cells; exp4, 0.016 ug, replicate 2",979
same,MFI CD69,"SKW-3 A5.5 TCR cells; exp4, 0.016 ug, replicate 2",906
same,Geometric CD3,"SKW-3 A5.5 TCR cells; exp4, 0.08 ug, replicate 1",1058
same,MFI CD69,"SKW-3 A5.5 TCR cells; exp4, 0.08 ug, replicate 1",987
same,Geometric CD3,"SKW-3 A5.5 TCR cells; exp4, 0.08 ug, replicate 2",1030
same,MFI CD69,"SKW-3 A5.5 TCR cells; exp4, 0.08 ug, replicate 2",964
same,Geometric CD3,"SKW-3 A5.5 TCR cells; exp4, 0.4 ug, replicate 1",1103
same,MFI CD69,"SKW-3 A5.5 TCR cells; exp4, 0.4 ug, replicate 1",1037
same,Geometric CD3,"SKW-3 A5.5 TCR cells; exp4, 0.4 ug, replicate 2",1058
same,MFI CD69,"SKW-3 A5.5 TCR cells; exp4, 0.4 ug, replicate 2",984
same,Geometric CD3,"SKW-3 A5.5 TCR cells; exp4, 2 ug, replicate 1",1233
same,MFI CD69,"SKW-3 A5.5 TCR cells; exp4, 2 ug, replicate 1",1175
same,Geometric CD3,"SKW-3 A5.5 TCR cells; exp4, 2 ug, replicate 2",1197
same,MFI CD69,"SKW-3 A5.5 TCR cells; exp4, 2 ug, replicate 2",1130
same,Geometric CD3,"SKW-3 A5.5 TCR cells; exp4, 10 ug, replicate 1",1614
same,MFI CD69,"SKW-3 A5.5 TCR cells; exp4, 10 ug, replicate 1",1582
same,Geometric CD3,"SKW-3 A5.5 TCR cells; exp4, 10 ug, replicate 2",1577
same,MFI CD69,"SKW-3 A5.5 TCR cells; exp4, 10 ug, replicate 2",1557
same,Geometric CD3,"SKW-3 A5.5 TCR cells; exp4, 50 ug, replicate 1",2018
same,MFI CD69,"SKW-3 A5.5 TCR cells; exp4, 50 ug, replicate 1",2047
same,Geometric CD3,"SKW-3 A5.5 TCR cells; exp4, 50 ug, replicate 2",1694
same,MFI CD69,"SKW-3 A5.5 TCR cells; exp4, 50 ug, replicate 2",1685
same,Geometric CD3,"SKW-3 A5.5 TCR cells; exp4, 100 ug, replicate 1",3490
same,MFI CD69,"SKW-3 A5.5 TCR cells; exp4, 100 ug, replicate 1",3626
same,Geometric CD3,"SKW-3 A5.5 TCR cells; exp4, 100 ug, replicate 2",3657
same,MFI CD69,"SKW-3 A5.5 TCR cells; exp4, 100 ug, replicate 2",3824
same,Geometric CD3,SKW-3 A5.5 TCR cells; [2],739
same,MFI CD69,SKW-3 A5.5 TCR cells; [2],670
same,Geometric CD3,SKW-3 A5.5 TCR cells; [3],745
same,MFI CD69,SKW-3 A5.5 TCR cells; [3],679
same,Geometric CD3,SKW-3 A5.5 TCR cells; [4],1084
same,MFI CD69,SKW-3 A5.5 TCR cells; [4],1022
same,Geometric CD3,SKW-3 A5.5 TCR cells; [5],1068
same,MFI CD69,SKW-3 A5.5 TCR cells; [5],1007
same,Geometric CD3,"SKW-3 A5.5 TCR cells; exp5, 0.016 ug, replicate 1",1160
same,MFI CD69,"SKW-3 A5.5 TCR cells; exp5, 0.016 ug, replicate 1",1101
same,Geometric CD3,"SKW-3 A5.5 TCR cells; exp5, 0.016 ug, replicate 2",1175
same,MFI CD69,"SKW-3 A5.5 TCR cells; exp5, 0.016 ug, replicate 2",1127
same,Geometric CD3,"SKW-3 A5.5 TCR cells; exp5, 0.08 ug, replicate 1",1165
same,MFI CD69,"SKW-3 A5.5 TCR cells; exp5, 0.08 ug, replicate 1",1110
same,Geometric CD3,"SKW-3 A5.5 TCR cells; exp5, 0.08 ug, replicate 2",1145
same,MFI CD69,"SKW-3 A5.5 TCR cells; exp5, 0.08 ug, replicate 2",1084
same,Geometric CD3,"SKW-3 A5.5 TCR cells; exp5, 0.4 ug, replicate 1",1217
same,MFI CD69,"SKW-3 A5.5 TCR cells; exp5, 0.4 ug, replicate 1",1166
same,Geometric CD3,"SKW-3 A5.5 TCR cells; exp5, 0.4 ug, replicate 2",1219
same,MFI CD69,"SKW-3 A5.5 TCR cells; exp5, 0.4 ug, replicate 2",1163
same,Geometric CD3,"SKW-3 A5.5 TCR cells; exp5, 2 ug, replicate 1",1325
same,MFI CD69,"SKW-3 A5.5 TCR cells; exp5, 2 ug, replicate 1",1295
same,Geometric CD3,"SKW-3 A5.5 TCR cells; exp5, 2 ug, replicate 2",1288
same,MFI CD69,"SKW-3 A5.5 TCR cells; exp5, 2 ug, replicate 2",1227
same,Geometric CD3,"SKW-3 A5.5 TCR cells; exp5, 10 ug, replicate 1",1582
same,MFI CD69,"SKW-3 A5.5 TCR cells; exp5, 10 ug, replicate 1",1562
same,Geometric CD3,"SKW-3 A5.5 TCR cells; exp5, 10 ug, replicate 2",1544
same,MFI CD69,"SKW-3 A5.5 TCR cells; exp5, 10 ug, replicate 2",1512
same,Geometric CD3,"SKW-3 A5.5 TCR cells; exp5, 50 ug, replicate 1",2599
same,MFI CD69,"SKW-3 A5.5 TCR cells; exp5, 50 ug, replicate 1",2696
same,Geometric CD3,"SKW-3 A5.5 TCR cells; exp5, 50 ug, replicate 2",2645
same,MFI CD69,"SKW-3 A5.5 TCR cells; exp5, 50 ug, replicate 2",2725
same,Geometric CD3,"SKW-3 A5.5 TCR cells; exp5, 100 ug, replicate 1",3392
same,MFI CD69,"SKW-3 A5.5 TCR cells; exp5, 100 ug, replicate 1",3527
same,Geometric CD3,"SKW-3 A5.5 TCR cells; exp5, 100 ug, replicate 2",3273
same,MFI CD69,"SKW-3 A5.5 TCR cells; exp5, 100 ug, replicate 2",3433
same,Geometric CD3,SKW-3 A5.5 TCR cells; [6],840
same,MFI CD69,SKW-3 A5.5 TCR cells; [6],793
same,Geometric CD3,SKW-3 A5.5 TCR cells; [7],856
same,MFI CD69,SKW-3 A5.5 TCR cells; [7],819
same,Geometric CD3,SKW-3 A5.5 TCR cells; [8],761
same,MFI CD69,SKW-3 A5.5 TCR cells; [8],694
same,Geometric CD3,SKW-3 A5.5 TCR cells; [9],846
same,MFI CD69,SKW-3 A5.5 TCR cells; [9],770

# Reference: article PMC8387461, “T cell receptor recognition of hybrid insulin peptides bound to HLA-DQ8” (Nature Communications, 2021)
